{"source": "patent US10017522B2", "about": "“Alpha helix mimetics and methods relating thereto” (PRISM BioLab Co., Ltd., priority 2009, dated 2018)", "test_system": "Wnt signaling pathway", "assay": "Reporter gene assay (SuperTOPFLASH luciferase, LiCl stimulated, Hek-293 STF1.1 cells)", "type": "cell-based", "conditions": "Homo sapiens, HEK293; at the concentration of 10 μM; stably transfected cell line Hek-293, STF1.1; 20 mM LiCl medium added, 24 hours; read-out: inhibitory activity determined by reporter gene assay", "protocol": "Screening for inhibitory action of the Wnt signaling pathway can be carried out according to the following procedure using the stably transfected cell line Hek-293, STF1.1. • Growth Medium: DMEM, 10% FBS, Pen-Strep, supplemented with 400 μg/mL G418 to maintain selection of SuperTOPFLASH driven Luciferase gene • 1. On the day prior to assay, split cells into a white opaque 96-well plate at 20,000 cells per well in 200 μl of complete growth medium • 2. Incubate the plate overnight at 37° C., 5% CO2 and allow the cells to attach • 3. Next day, prepare the inhibitors to be tested in complete growth medium, without G418, at 2× the desired final concentration (all conditions are done in duplicates) • 4. Carefully remove the old medium from each well using a multiple pipettor • 5. […] Read plate on the Packard TopCount\nIn the tables, the compounds having inhibitory activity more than 50% at the concentration of 10 microM (μM) determined by reporter gene assay are shown below.\nScreening for inhibitory action of the Wnt signaling pathway was carried out according to the following procedure using the stably transfected cell line Hek-293, STF1.1 • Growth Medium: DMEM, 10% FBS, Pen-Strep, supplemented with 400 μg/mL G418 to maintain selection of SuperTOPFLASH driven Luciferase gene • 1. […] Read plate on the Packard TopCount", "data": [{"compound": "CN1[C@@H](Cc2ccc(O)cc2)C(=O)N(Cc2cccc3ccccc23)CC2N(C(=O)NCc3ccccc3)CCC(=O)N21", "note": "(stereo partly drawn) [Example I-268, (2S)—N-benzyl-2-(4-hydroxybenzyl)-1-methyl-4-(naphthalen-1-ylmethyl)-3,9-dioxooctahydropyrimido[1,2-b][1,2,5]triazepine-6(7H)-carboxamide]", "values": [{"measurement": "inhibition at 10 µM", "result": "≥ 50", "unit": "%"}]}]}
